# Measurements: PMC5053523, “In Vitro Antibacterial Activity of Rhodanine Derivatives against Pathogenic Clinical Isolates” (PLoS ONE, 2016)
# Read-outs that look alike come from different tables or passages of the source.
# How the values were obtained:
# Assay type in all cases: cell-based
# [1] = tested on: Acinetobacter baumannii; assay: MIC with/without PMBN, Acinetobacter baumannii
# Method: (§1) The MIC of the rhodanines and control antibiotics, in the presence of a sub-inhibitory concentration of colistin or polymixin B nonapeptide (PMBN), against Gram-negative bacteria was evaluated as described before. The antibacterial activity of the rhodanines was further investigated against E. coli SM1411Δ acrAB, a strain that is deficient in the multidrug-resistant AcrAB efflux pump, as described before.
# [2] = tested on: K. pneumoniae; assay: Broth microdilution MIC, K. pneumoniae
# [3] = tested on: Vancomycin Resistant Staphylococcus aureus (VRSA); assay: Broth microdilution MIC/MBC, VRSA; conditions: for MBC / MIC: VRSA
# [4] = tested on: Candida albicans; assay: MIC against Candida albicans; conditions: table prints none, read-out: MIC
# [5] = tested on: Klebsiella pneumoniae; assay: MIC with/without PMBN, Klebsiella pneumoniae
# Method: as §1
# [6] = tested on: methicillin-resistant Staphylococcus aureus (MRSA); assay: Broth microdilution MIC/MBC, MRSA
# [7] = tested on: vancomycin resistant enterococci (VRE) E. faecium; assay: Broth microdilution MIC/MBC, VRE E. faecium; conditions: for MIC: read-out: MIC
# [8] = tested on: Escherichia coli O157:H7; assay: MIC with/without sub-MIC colistin, Escherichia coli O157:H7
# Method: as §1
# [9] = tested on: Bacillus anthracis; assay: microbe, parasite or virus in culture
# [10] = tested on: vancomycin resistant enterococci (VRE) E. faecalis; assay: Broth microdilution MIC/MBC, VRE E. faecalis; conditions: for MIC: read-out: MIC
# [11] = E. faecium HM 968 Strain ERV102
# [12] = E. faecium NR31914 Strain E0120
# [13] = E. faecium Patient #1–1 NR-31903
# [14] = E. faecalis NR31972 Strain SF 28073
smiles,measurement,setting,value
O=C(O)[C@H](Cc1ccccc1)N1C(=O)/C(=C/c2cccc(Oc3ccc(Cl)c(Cl)c3)c2)SC1=S [Rh 1],MIC,"[1]; Acinetobacter baumannii ATCC BAA747, PMBN (+) 4 μg/mL, read-out: MIC",>64 µM
same,MIC,"[1]; Acinetobacter baumannii ATCC BAA19606, PMBN (+) 4 μg/mL, read-out: MIC",>64 µM
same,MIC,"[1]; Acinetobacter baumannii, ATCCBAA747",> 128 µM
same,MIC,"[1]; Acinetobacter baumannii, ATCCBAA19606",> 128 µM
same,MIC,[2]; K. pneumoniae NR-15417,>128 µM
same,MIC,[2]; Klebsiella pneumoniae,> 128 µM
same,MIC50,"[3]; 15 VRSA strains, read-out: MIC 50",8 µM
same,MIC90,"[3]; 15 VRSA strains, read-out: MIC 90",8 µM
same,MBC,"[3]; VRSA 1, read-out: MBC",8 µM
same,MIC,"[3]; VRSA 1, read-out: MIC",8 µM
same,MBC,"[3]; VRSA 2, read-out: MBC",8 µM
same,MIC,"[3]; VRSA 2, read-out: MIC",8 µM
same,MBC,"[3]; VRSA 3a, read-out: MBC",16 µM
same,MIC,"[3]; VRSA 3a, read-out: MIC",8 µM
same,MBC,"[3]; VRSA 3b, read-out: MBC",8 µM
same,MIC,"[3]; VRSA 3b, read-out: MIC",8 µM
same,MBC,"[3]; VRSA 4, read-out: MBC",8 µM
same,MIC,"[3]; VRSA 4, read-out: MIC",8 µM
same,MBC,"[3]; VRSA 5, read-out: MBC",16 µM
same,MIC,"[3]; VRSA 5, read-out: MIC",8 µM
same,MBC,"[3]; VRSA 6, read-out: MBC",8 µM
same,MIC,"[3]; VRSA 6, read-out: MIC",4 µM
same,MBC,"[3]; VRSA 7, read-out: MBC",8 µM
same,MIC,"[3]; VRSA 7, read-out: MIC",8 µM
same,MBC,"[3]; VRSA 8, read-out: MBC",32 µM
same,MIC,"[3]; VRSA 8, read-out: MIC",4 µM
same,MBC,"[3]; VRSA 9, read-out: MBC",32 µM
same,MIC,"[3]; VRSA 9, read-out: MIC",8 µM
same,MBC,"[3]; VRSA 10, read-out: MBC",32 µM
same,MIC,"[3]; VRSA 10, read-out: MIC",8 µM
same,MBC,"[3]; VRSA 11a, read-out: MBC",16 µM
same,MIC,"[3]; VRSA 11a, read-out: MIC",8 µM
same,MBC,"[3]; VRSA 11b, read-out: MBC",32 µM
same,MIC,"[3]; VRSA 11b, read-out: MIC",8 µM
same,MBC,"[3]; VRSA 12, read-out: MBC",32 µM
same,MIC,"[3]; VRSA 12, read-out: MIC",8 µM
same,MBC,"[3]; VRSA 13, read-out: MBC",32 µM
same,MIC,"[3]; VRSA 13, read-out: MIC",8 µM
same,MIC,"[4]; ATCC10231, C. albicans ATCC 10231, unit from abstract",> 64 µM
same,MIC,"[4]; C. albicans NR 29434, unit from abstract",> 64 µM
same,MIC,"[4]; C. albicans NR 29435, unit from abstract",> 64 µM
same,MIC,"[4]; C. albicans NR29437, unit from abstract",> 64 µM
same,MIC,"[4]; C. albicans NR29438, unit from abstract",> 64 µM
same,MIC,"[4]; C. albicans NR 29446, unit from abstract",> 64 µM
same,MIC,"[4]; C. albicans NR 29448, unit from abstract",> 64 µM
same,MIC,"[4]; C. albicans NR 29449, unit from abstract",> 64 µM
same,MIC,"[4]; C. albicans NR 29453, unit from abstract",> 64 µM
same,MIC,"[4]; C. albicans NR 294436, unit from abstract",> 64 µM
same,MIC,"[5]; Klebsiella pneumoniae ATCC BAA 1706, PMBN (+) 4 μg/mL",>64 µM
same,MIC,"[5]; Klebsiella pneumoniae ATCC BAA 2146, PMBN (+) 4 μg/mL",>64 µM
same,MIC,"[5]; Klebsiella pneumoniae, BAA1706",> 128 µM
same,MIC,"[5]; Klebsiella pneumoniae, BAA2146",> 128 µM
same,MIC50,[6]; 11 MRSA strains,8 µM
same,MIC90,[6]; 11 MRSA strains,8 µM
same,MBC,[6]; MRSA NRS 1,8 µM
same,MIC,[6]; MRSA NRS 1,8 µM
same,MBC,[6]; MRSA NRS 19,8 µM
same,MIC,[6]; MRSA NRS 19,8 µM
same,MBC,[6]; MRSA NRS 37,8 µM
same,MIC,[6]; MRSA NRS 37,8 µM
same,MBC,[6]; MRSA NRS 107,8 µM
same,MIC,[6]; MRSA NRS 107,8 µM
same,MBC,[6]; MRSA NRS 119,8 µM
same,MIC,[6]; MRSA NRS 119,8 µM
same,MBC,[6]; MRSA NRS 382,8 µM
same,MIC,[6]; MRSA NRS 382,8 µM
same,MBC,[6]; MRSA NRS 383,8 µM
same,MIC,[6]; MRSA NRS 383,8 µM
same,MBC,[6]; MRSA NRS 384,32 µM
same,MIC,[6]; MRSA NRS 384,8 µM
same,MBC,[6]; MRSA NRS 385,8 µM
same,MIC,[6]; MRSA NRS 385,8 µM
same,MBC,[6]; MRSA NRS 386,16 µM
same,MIC,[6]; MRSA NRS 386,8 µM
same,MBC,[6]; MRSA NRS 387,8 µM
same,MIC,[6]; MRSA NRS 387,8 µM
same,MBC,[7]; E. faecium E417 HM-965,> 64 µM
same,MIC,[7]; E. faecium E417 HM-965,8 µM
same,MBC,[7]; E. faecium E1071 NR-28978,64 µM
same,MIC,[7]; E. faecium E1071 NR-28978,8 µM
same,MBC,[7]; [11],32 µM
same,MIC,[7]; [11],8 µM
same,MBC,[7]; [12],64 µM
same,MIC,[7]; [12],8 µM
same,MBC,[7]; [13],16 µM
same,MIC,[7]; [13],4 µM
same,MIC,"[8]; Escherichia coli O157:H7 ATCC 35150, colistin (+) […], read-out: MIC",>64 µM
same,MIC,"[8]; Escherichia coli O157:H7 ATCC 700728, colistin (+) […], read-out: MIC",>64 µM
same,MIC,"[8]; Escherichia coli, ATCC35150",> 128 µM
same,MIC,"[8]; Escherichia coli, ATCC700728",> 128 µM
same,MBC,[9]; Bacillus anthracis AMES35,2 µM
same,MIC,[9]; Bacillus anthracis AMES35,2 µM
same,MBC,[9]; Bacillus anthracis UM23,2 µM
same,MIC,[9]; Bacillus anthracis UM23,2 µM
same,MBC,[9]; Bacillus anthracis Weybridge,2 µM
same,MIC,[9]; Bacillus anthracis Weybridge,2 µM
same,MBC,[10]; E. faecalis ERV103 HM-934,8 µM
same,MIC,[10]; E. faecalis ERV103 HM-934,8 µM
same,MBC,[10]; [14],32 µM
same,MIC,[10]; [14],8 µM
same,MBC,[10]; E. faecalis R712 HM-335,8 µM
same,MIC,[10]; E. faecalis R712 HM-335,4 µM
same,MBC,[10]; E. faecalis S613 HM-334,8 µM
same,MIC,[10]; E. faecalis S613 HM-334,8 µM
same,MBC,[10]; E. faecalis TX0104 HM-201,8 µM
same,MIC,[10]; E. faecalis TX0104 HM-201,8 µM
